What was measured:
[1] = test system: U87 glioblastoma xenograft; assay: U87 glioblastoma xenograft model; type: in vivo, athymic nude mice; details: end of the experiment (day 19); 7 20 mg/kg i.p., TMZ 10 mg/kg i.p.
Protocol: A xenograft model of tumor progression was induced by subcutaneous (s.c.) implantation of U87 glioblastoma cells (2×10^7 cells/mL) suspended in 0.1 mL of saline buffer into the left flank of athymic nude mice. On day 4 after tumor transplantation, the mice were divided into four groups: (1) mice received intraperitoneal (i.p.) injections of 10% Tween-80 (vehicle) (n = 6); (2) mice received i.p. injections of compound 7 in 10% Tween-80 at a dose of 20 mg/kg (n = 5); (3) mice received i.p. injections of TMZ in saline buffer at a dose of 10 mg/kg (n = 5); (4) mice received combination therapy of compound 7 and TMZ at the same dosage and administration route (n = 6). Compound 7 was administered three times per week; in total seven injections were performed. TMZ was administered daily except weekends; in total eleven injections were performed. During the experiment, the tumor volumes were determined three times per week using caliper measurements and were calculated as V = (D × d^2)/2, where D is the longest diameter of the tumor node and d is the shortest diameter of the tumor node perpendicular to D. Mice were sacrificed on day 19 after tumor transplantation and material (tumor nodes, livers, and kidneys) was collected for subsequent analysis.

[2] = Toxicity assessment in U87 glioblastoma-bearing mice; type: in vivo, athymic nude mice; details: 7 20 mg/kg i.p. or TMZ 10 mg/kg i.p. injected alone
Protocol: During the experiment, the general status and body weight of the animals were monitored. At the end of the experiment, livers and kidneys were collected and organ indices were calculated as (organ weight/body weight) × 100%, followed by the normalization of organ indices of experimental mice to organ indices of control mice.

U87 cells [3] = assay: Annexin V-FITC/propidium iodide flow cytometry, U87, 72 h, TMZ/7/NAC; type: cell-based, human; details: U87, TMZ 500 μM, 7 600 nM
Protocol: […] To quantify the total proportion of apoptotic cells in control and experimental groups, the events accumulated in the lower right quadrant (early apoptosis) and upper right quadrant (late apoptosis) were summarized.
(§1) After staining, 10,000 cells per sample were analyzed on a NovoCyte flow cytometer using NovoExpress software (ACEA Biosciences, Inc., USA).

[4] = test system: ROS production in U87 cells; assay: Intracellular ROS (DCFDA staining, flow cytometry), U87; type: cell-based, human; details: U87, TMZ 125 μM, 7 100 nM, NAC 2 mM, 72 h
Protocol: Intracellular ROS levels were measured according to previously published studies ([Han et al., 2008]; [Samandari-Bahraseman et al., 2023]; [Kopsida et al., 2024]), using the DCFDA/H2DCFDA Cellular ROS Assay Kit (Abcam, Cambridge, United Kingdom). U87 cells were incubated with 7 and TMZ with or without NAC for 72 h (n = 3). Cells were then washed with PBS and incubated with 20 µM H2DCFDA for 30 min under standard conditions, followed by the removal of H2DCFDA-containing medium and double washing with PBS.
as §1

EPNT-5 cells = assay: MTT assay 72 h, 7 and TMZ alone and combined, synergy (HSA), EPNT-5; type: cell-based, mouse; details: MTT
Protocol: (§2) The drug synergy score was calculated for the dose-response matrix according to the highest single-agent (HSA) model using the SynergyFinder + web application (https://www.synergyfinder.org/).

U87 cells [5] = assay: MTT assay 72 h, 7 and TMZ alone and combined, synergy (HSA), U87; type: cell-based, human
Protocol: as §2

U118 cells = assay: MTT assay 72 h, 7 and TMZ alone and combined, synergy (HSA), U118; type: cell-based, human
Protocol: as §2

[6] = test system: U87 glioblastoma tumor tissue; assay: Histology and immunohistochemistry of U87 xenograft tumors; type: in vivo, athymic nude mice; details: day 19
Protocol: For the histological study, the tumor specimens were fixed in 10% neutral-buffered formalin (BioVitrum, Moscow, Russia), dehydrated in ascending ethanols and xylols and embedded in HISTOMIX paraffin (BioVitrum, Russia). The paraffin sections (3–4 µm) were sliced on a Microm HM 355S microtome (Thermo Fisher Scientific, Waltham, MA, USA) and stained with hematoxylin and eosin.
For the immunohistochemical study, the tumor sections were deparaffinized and rehydrated. Antigen retrieval was carried out after exposure in a microwave oven at 700 W. The samples were incubated with anti-Ki-67 (ab16667, Abcam, Boston, MA, USA) (n = 3), anti-GFAP (ab194325, Abcam, USA) (n = 3), and anti-N-cadherin (ab76011, Abcam, USA) (n = 3) primary antibodies according to the manufacturer’s protocol. Then, the sections were incubated with secondary horseradish peroxidase (HPR)-conjugated antibodies, exposed to the 3,30-diaminobenzidine (DAB) substrate (Rabbit Specific HRP/DAB (ABC) Detection IHC Kit, ab64261, Abcam, USA) and stained with Mayer’s hematoxylin.
Five to ten random fields were examined from the tumor specimens of three mice in each group, for a total of 15–30 test fields.

U87 glioblastoma cells = assay: MTT cell viability assay, U87 cells, 48 h; type: cell-based, human; details: for relative cytotoxicity: 48 h of incubation, U87; for MNTC: Homo sapiens, U-87 MG, 48 h, read-out: non-toxic concentration that reduced U87 cell viability by less than 10%
Protocol: Cells were seeded in quadruplicate in 96-well plates at 10,000 cells/well and allowed to adhere overnight. The medium was then replaced with serum-free DMEM containing increasing concentrations of soloxolone amides for 48 h. After incubation, 3-(4,5-dimethylthiazol-2-yl)-2,5-diphenyltetrazolium bromide (MTT dye) was added at a final concentration of 0.5 mg/mL and left for 2 h. The resulting formazan crystals were dissolved in DMSO and the optical density was measured at 570 nm using a Multiscan RC plate reader (Thermo LabSystems, Helsinki, Finland).

TGF-β1-treated U87 cells = assay: Adhesion of U87 cells to culture plastic (TrypLE treatment assay); type: cell-based, human; details: TGF-β1 50 ng/mL, non-toxic concentrations, 48 h
Protocol: Adhesiveness of glioblastoma cells was assessed by two independent methods. First, cell adhesion to culture plastic was tested using a trypsin treatment assay, as previously described ([Sava et al., 2004]; [Mazuryk et al., 2015]; [van Dijk et al., 2017]). Briefly, U87 and U118 cells (10,000 cells per well of a 96-well plate, n = 4) were cultured with TGF-β1 (50 ng/mL) and non-toxic concentrations of soloxolone amides for 48 h and then treated with a 1:20 dilution of TrypLE Express (Gibco, USA) in PBS for 3 min at 37°C. Non-adherent cells were then removed by a triple PBS wash, and the remaining adherent cells were fixed with 4% formaldehyde and stained with crystal violet dye (0.1% w/v). Images were captured using the iBright 1,500 Imaging System (Invitrogen, USA), and the cell-occupied area was calculated using ImageJ. Alternatively, the number of adherent cells was quantified using the MTT assay.

TGF-β1-induced U87 cells = assay: Cell morphology (cell size) of TGF-β1-induced U87 cells; type: cell-based, human; details: TGF-β1 50 ng/mL, non-toxic concentrations, 48 h
Protocol: After seeding at a concentration of 5,000 cells/well in triplicate in 96-well plates and incubating overnight, U87 and U118 cells were exposed to TGF-β1 (50 ng/mL) and non-toxic concentrations of soloxolone amides for 48 h. An EVOS XL Core microscope with an integrated CMOS camera (Thermo Fisher Scientific, USA) was then used to examine cell morphology at ×20 magnification. Aspect ratio (AR) and area were quantified for at least 150 cells in each experimental group using ImageJ software (NIH, USA).

[7] = test system: U87 glioblastoma xenograft; set-up: method as in Markov et al., 2022a; details: 9 administered at a similar dose and schedule; ref Markov et al., 2022a; cited from earlier work
U87 primary tumorspheres = test system: U87 primary tumorspheres; set-up: method as in Markov et al., 2023; details: ref Markov et al., 2023; cited from earlier work

Question: With `Cn1nnc2c(C(N)=O)ncn2c1=O` [TMZ, temozolomide, reference compound] as the compound, how does the “reduction in tumor weight compared to the vehicle” value [1] read?
Answer: 21.9 fold

Question: And the “toxic effects (body weight and organ indices)” value [2]?
Answer: no toxic effects

Question: What about the “cells in the right quadrants (apoptosis)” value (U87 cells [3]) of the same compound?
Answer: 9%

Question: And the “ROS accumulation (in words)” value [4]?
Answer: did not increase ROS accumulation

Question: What about the IC50 (EPNT-5 cells) of the same compound?
Answer: > 500 µM

Question: And the IC50 (U87 cells [5]; MTT)?
Answer: 213 µM

Question: What about the “reduction of the cytotoxic effect by NAC” value (U87 cells [5]; U87, NAC 2 mM, TMZ 125 μM, 7 100 nM) of the same compound?
Answer: 22.3%

Question: What about the IC50 (U118 cells; MTT) of the same compound?
Answer: > 500 µM

Question: And the “reduction of the cytotoxic effect by NAC” value (U118 cells; U118, NAC 2 mM, TMZ 125 μM, 7 100 nM)?
Answer: 32.5%

Question: What about the “N-cadherin and GFAP levels in tumor sections (immunohistochemistry)” value [6] of the same compound?
Answer: significantly reduced their levels

Question: And the “reduction in the numerical density of Ki-67-positive cells compared to vehicle” value [6]?
Answer: 9 fold

Question: With `CC1(C)C(=O)C(C#N)=C[C@]2(C)C3=CC(=O)[C@@H]4[C@@H]5C[C@@](C)(C(=O)NCCCCCO)CC[C@]5(C)CC[C@@]4(C)[C@]3(C)CCC12` (stereo partly drawn) [compound 2, N-(5′-hydroxypentyl)-2-cyano-3,12-dioxo-18βH-olean-9(11),1(2)-dien-30-amide] as the compound, how does the relative cytotoxicity (U87 glioblastoma cells) read?
Answer: moderate

Question: What about the MNTC (U87 glioblastoma cells) of the same compound?
Answer: 100 nM

Question: Which relative cytotoxicity (U87 glioblastoma cells) does the source give for `CN(C)CCNC(=O)[C@@]1(C)CC[C@]2(C)CC[C@]3(C)[C@H](C(=O)C=C4[C@@]5(C)C=C(C#N)C(=O)C(C)(C)C5CC[C@]43C)[C@@H]2C1` (stereo partly drawn) [compound 3, N-(2′-(dimethylamino)ethyl)-2-cyano-3,12-dioxo-18βH-olean-9(11),1(2)-dien-30-amide] here?
Answer: low

Question: And the MNTC (U87 glioblastoma cells)?
Answer: 300 nM

Question: And the “adhesion of TGF-β1-treated U87 cells to culture plastic (crystal violet)” value (TGF-β1-treated U87 cells)?
Answer: restoring it to control levels

Question: Which results are given for `CN(C)CCCNC(=O)[C@@]1(C)CC[C@]2(C)CC[C@]3(C)[C@H](C(=O)C=C4[C@@]5(C)C=C(C#N)C(=O)C(C)(C)C5CC[C@]43C)[C@@H]2C1` (stereo partly drawn) [compound 4, N-(3′-(dimethylamino)propyl)-2-cyano-3,12-dioxo-18βH-olean-9(11),1(2)-dien-30-amide]?
Answer: relative cytotoxicity (U87 glioblastoma cells): low; MNTC (U87 glioblastoma cells): 300 nM

Question: What does the source list for `CC1(C)C(=O)C(C#N)=C[C@]2(C)C3=CC(=O)[C@@H]4[C@@H]5C[C@@](C)(C(=O)Nc6ccc(Br)cc6)CC[C@]5(C)CC[C@@]4(C)[C@]3(C)CCC12` (stereo partly drawn) [compound 5, N-(4′-bromophenyl)-2-cyano-3,12-dioxo-18βH-olean-9(11),1(2)-dien-30-amide]?
Answer: effect on size/morphology of TGF-β1-induced U87 cells (TGF-β1-induced U87 cells): restored their morphological characteristics to the control cells; relative cytotoxicity (U87 glioblastoma cells): high; MNTC (U87 glioblastoma cells): 50 nM

Question: Which relative cytotoxicity (U87 glioblastoma cells) does the source give for `CC1(C)C(=O)C(C#N)=C[C@]2(C)C3=CC(=O)[C@@H]4[C@@H]5C[C@@](C)(C(=O)Nc6cccnc6)CC[C@]5(C)CC[C@@]4(C)[C@]3(C)CCC12` (stereo partly drawn) [compound 6, N-(pyridin-3-yl)-2-cyano-3,12-dioxo-18βH-olean-9(11),1(2)-dien-30-amide] here?
Answer: moderate

Question: And the MNTC (U87 glioblastoma cells)?
Answer: 100 nM

Question: With `CC(C)(C)c1cc(CCCNC(=O)[C@@]2(C)CC[C@]3(C)CC[C@]4(C)[C@H](C(=O)C=C5[C@@]6(C)C=C(C#N)C(=O)C(C)(C)C6CC[C@]54C)[C@@H]3C2)cc(C(C)(C)C)c1O` (stereo partly drawn) [compound 8, N-(3′-(3″,5″-di-tert-butyl-4″-hydroxyphenyl)propyl)-2-cyano-3,12-dioxo-18βH-olean-9(11),1(2)-dien-30-amide] as the compound, how does the relative cytotoxicity (U87 glioblastoma cells) read?
Answer: high

Question: And the MNTC (U87 glioblastoma cells)?
Answer: 50 nM

Question: Which results are given for `CC1(C)C(=O)C(C#N)=C[C@]2(C)C3=CC(=O)[C@@H]4[C@@H]5C[C@@](C)(C(=O)NCCc6c[nH]c7ccccc67)CC[C@]5(C)CC[C@@]4(C)[C@]3(C)CCC12` (stereo partly drawn) [compound 9]?
Answer: effect on size/morphology of TGF-β1-induced U87 cells (TGF-β1-induced U87 cells): restored their morphological characteristics to the control cells; reduction in tumor weight compared to the vehicle-treated group [7]: 3.4 fold; relative cytotoxicity (U87 glioblastoma cells): moderate; MNTC (U87 glioblastoma cells): 100 nM; concentration causing a large-scale reduction of spheroids (U87 primary tumorspheres): 4 µM
